Laboratory results from US20070049518A1, “Novel method of treatment of inflammatory skin conditions” (priority 2005, published 2007).

Columns and labels:
recombinant human ACE = biological target: T1, recombinant human ACE (Homo sapiens, UniProt P12821); test: Selectivity profile, ACE; type: biochemical; conditions: read-out: inhibition at 0.1 mM, ACE
T1 construct: purchased R&D Systems Inc
Procedure: (§1) Inhibitory activity was tested in reaction mixtures (0.1 ml) containing 2% (v/v) DMSO vehicle±compound plus additions as follows. V8 protease: 90 mM MOPS (sodium) buffer pH 7.0, […] calcium chloride, 0.045% Brij 35, 10 μM Mca-Leu-Glu-Val-Asp-Gly-Trp-Lys(Dnp)-amide (Bachem) and V8 (BioCentrum Ltd; 30 ng). Staphopain A and B: 90 mM MOPS (sodium) buffer pH 7.0, 1.8 mM cysteine-HCl (pH-adjusted with NaOH), 0.045% Brij 35, 0.1 mM Z-Phe-Arg-AMC hydrochloride (Bachem) and staphopain A or B (BioCentrum Ltd; 30 ng). Human kallikrein 5: 0.1M sodium phosphate buffer pH 8.0, 0.045% Brij 35, 0.1 mM Boc-Val-Pro-Arg-AMC (Sigma) and recombinant human kallikrein 5 (R&D Systems Inc; 6 ng). Human kallikrein 7: 72 mM Tris-HCl pH 8.0, 0.033% Brij 35, 1.2 mM S-2586 (Chromogenix Instrumentation Laboratory SpA) and recombinant human kallikrein 7 (R&D Systems Inc; 0.6 μg) that had been thermolysin-activated according to the manufacturer's instructions. Human angiotensin-converting enzyme (ACE): 45 mM MES (sodium) buffer pH 6.5, 0.045% Brij 35, 10 μM Mca-[…]Dnp)-OH(R&D Systems Inc) and recombinant human ACE (R&D Systems Inc; 1.3 ng). Human cathepsin D: 0.1M sodium acetate buffer pH 3.5, 0.2M sodium chloride, 0.045% Brij 35, 10 μM Mca-Pro-Leu-Gly-Leu-Dap(Dnp)-Ala-Arg-amide (Bachem) and recombinant human cathepsin D (R&D Systems Inc; 8 ng) activated according to the manufacturer's instructions. […]

[1] = biological target: T2, recombinant human kallikrein 7 (Homo sapiens, UniProt P49862); test: Selectivity profile, kallikrein 7; type: biochemical; conditions: read-out: inhibition at 0.1 mM, Kallikrein 7
T2 construct: purchased R&D Systems Inc
T2 sequence (P49862 30-253): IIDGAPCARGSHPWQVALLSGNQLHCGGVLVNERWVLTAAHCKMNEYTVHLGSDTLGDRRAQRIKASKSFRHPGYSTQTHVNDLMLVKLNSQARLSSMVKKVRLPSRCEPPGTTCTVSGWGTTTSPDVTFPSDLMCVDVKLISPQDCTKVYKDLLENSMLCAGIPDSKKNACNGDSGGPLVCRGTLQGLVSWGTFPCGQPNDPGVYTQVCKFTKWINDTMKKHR
Procedure: as §1

aureolysin = aureolysin (Staphylococcus aureus, UniProt P81177); test: Inhibition of aureolysin-mediated pro-uPA activation; conditions: for Relative activity: Aureolysin 1 μg/ml, pH 5.6
Sequence of aureolysin (P81177 209-509): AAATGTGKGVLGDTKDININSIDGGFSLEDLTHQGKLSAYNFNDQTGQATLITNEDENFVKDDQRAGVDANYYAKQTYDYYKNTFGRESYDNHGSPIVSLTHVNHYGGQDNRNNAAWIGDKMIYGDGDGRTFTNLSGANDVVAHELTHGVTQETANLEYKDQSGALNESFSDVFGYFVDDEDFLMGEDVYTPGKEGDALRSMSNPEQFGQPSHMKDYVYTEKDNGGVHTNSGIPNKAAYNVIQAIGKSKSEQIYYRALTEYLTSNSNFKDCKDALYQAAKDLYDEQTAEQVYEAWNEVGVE
Text: Under these conditions the extent of pro-uPA cleavage as assessed by uPA activity was directly proportional to the concentration of aureolysin in the assay.

[2] = system: Cysteine protease in S. aureus 8325-4 culture supernatant; test: Cysteine protease activity in supernatant of S. aureus grown with compound; type: cell-based, Staphylococcus aureus
Procedure: (§2) Duplicate samples of brain heart infusion medium (5 ml; Becton Dickinson and Co.) containing 10% skimmed milk and 2% (v/v) DMSO vehicle±Compound 12 were inoculated with S. aureus 8325-4 (approximately 10^7 cells in tryptic soy broth) and incubated for 16 h at 37° C./220 rpm. Cultures were centrifuged to remove bacteria and the culture supernatants stored at −70° C. pending analysis of protease activity.
(§3) Enzyme activities were measured in mixtures containing 90 mM MOPS (sodium) buffer pH 7.0 (0.1 ml), 0.045% Brij 35, 2% (v/v) DMSO vehicle±Compound 12 and culture supernatant (4 μl). The concentration of compound used was the same as that which had been used to culture the assayed sample. Further additions to the reaction mixtures were as follows. Aureolysin assay: 4.5 mM calcium chloride, 9 μM E-64 (to inhibit cysteine protease activity) and 10 μM Mca-Pro-Leu-Gly-Leu-Dap(Dnp)-Ala-Arg-amide (Bachem); V8 protease assay: 10 μM Mca-Leu-Glu-Val-Asp-Gly-Trp-Lys(Dnp)-amide (Bachem); cysteine protease assay: 1.8 mM cysteine-HCl (pH-adjusted with NaOH), 9 mM EDTA and 0.1 mM Z-Phe-Arg-AMC hydrochloride (Bachem). The rate of product formation at 37° C. was monitored over 6 h taking readings at 15 min intervals using a POLARstar OPTIMA plate reader (BMG LABTECH Ltd) with 320 nm excitation/405 nm emission for aureolysin and V8 assays and 390 nm excitation/460 nm emission for the cysteine protease assay. Enzyme activities were determined from the linear rate of fluorescence increase and converted to percent inhibition by reference to vehicle control samples.

[3] = system: V8 protease in S. aureus 8325-4 culture supernatant; test: V8 protease activity in supernatant of S. aureus grown with compound; type: cell-based, Staphylococcus aureus
Procedure: as §2, §3

[4] = biological target: T3, recombinant human kallikrein 5 (Homo sapiens, UniProt Q9Y337); test: Selectivity profile, kallikrein 5; type: biochemical; conditions: read-out: inhibition at 0.1 mM, Kallikrein 5
T3 construct: purchased R&D Systems Inc
T3 sequence (Q9Y337 23-293): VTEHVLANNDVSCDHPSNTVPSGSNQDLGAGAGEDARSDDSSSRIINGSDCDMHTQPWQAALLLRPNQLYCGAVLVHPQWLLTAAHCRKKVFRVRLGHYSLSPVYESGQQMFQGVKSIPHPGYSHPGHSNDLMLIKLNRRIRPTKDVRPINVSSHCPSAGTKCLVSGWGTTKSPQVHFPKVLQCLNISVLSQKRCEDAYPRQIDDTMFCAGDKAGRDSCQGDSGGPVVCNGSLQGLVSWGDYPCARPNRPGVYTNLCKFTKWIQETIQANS
Procedure: as §1

[5] = system: Aureolysin in S. aureus 8325-4 culture supernatant; test: Aureolysin activity in supernatant of S. aureus grown with compound; type: cell-based, Staphylococcus aureus
Procedure: as §2, §3

[6] = Compound 12 40 μM in culture and assay
[7] = Compound 12 79 μM in culture and assay
[8] = Compound 12 159 μM in culture and assay
[9] = Compound 12 317 μM in culture and assay

T1 sequence (P12821 30-1306): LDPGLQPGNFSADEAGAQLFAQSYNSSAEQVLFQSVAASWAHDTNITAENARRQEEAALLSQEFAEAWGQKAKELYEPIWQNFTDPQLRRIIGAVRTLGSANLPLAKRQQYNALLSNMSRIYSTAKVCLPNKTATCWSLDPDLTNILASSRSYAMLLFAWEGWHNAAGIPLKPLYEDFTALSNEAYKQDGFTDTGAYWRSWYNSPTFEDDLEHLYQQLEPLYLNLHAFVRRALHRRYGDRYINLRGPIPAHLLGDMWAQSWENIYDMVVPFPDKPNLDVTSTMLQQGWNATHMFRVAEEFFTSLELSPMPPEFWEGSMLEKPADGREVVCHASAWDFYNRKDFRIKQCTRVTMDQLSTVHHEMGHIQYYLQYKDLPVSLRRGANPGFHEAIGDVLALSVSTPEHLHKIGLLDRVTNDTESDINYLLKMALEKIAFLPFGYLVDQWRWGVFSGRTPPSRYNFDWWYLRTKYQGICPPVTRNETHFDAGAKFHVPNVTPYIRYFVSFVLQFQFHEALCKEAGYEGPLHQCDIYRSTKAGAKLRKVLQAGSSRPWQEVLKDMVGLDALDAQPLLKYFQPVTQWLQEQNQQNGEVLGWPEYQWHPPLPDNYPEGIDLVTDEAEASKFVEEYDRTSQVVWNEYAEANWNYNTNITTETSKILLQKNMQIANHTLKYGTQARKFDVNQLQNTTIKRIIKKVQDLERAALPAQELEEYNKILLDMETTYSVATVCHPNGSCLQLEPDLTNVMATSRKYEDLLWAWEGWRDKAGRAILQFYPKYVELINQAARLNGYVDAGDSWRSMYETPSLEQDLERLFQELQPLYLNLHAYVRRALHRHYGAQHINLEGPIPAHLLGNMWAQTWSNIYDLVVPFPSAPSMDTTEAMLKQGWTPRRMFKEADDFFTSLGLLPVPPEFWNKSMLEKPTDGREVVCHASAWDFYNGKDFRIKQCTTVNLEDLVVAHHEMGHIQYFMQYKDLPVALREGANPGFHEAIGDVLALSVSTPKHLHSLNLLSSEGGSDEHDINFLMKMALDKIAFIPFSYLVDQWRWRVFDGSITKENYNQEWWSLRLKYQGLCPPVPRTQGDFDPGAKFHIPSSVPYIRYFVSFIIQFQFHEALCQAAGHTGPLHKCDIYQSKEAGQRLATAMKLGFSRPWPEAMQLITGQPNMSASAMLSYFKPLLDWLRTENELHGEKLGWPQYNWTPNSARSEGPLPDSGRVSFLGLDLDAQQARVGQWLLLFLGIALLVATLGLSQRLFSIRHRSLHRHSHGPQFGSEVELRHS

SMILES: CNC(=O)[C@@H](NC(=O)[C@H](CC(=O)NO)CC(C)C)C(C)(C)C [Compound 12, (S)—N1-((S)-3,3-dimethyl-1-(methylamino)-1-oxobutan-2-yl)-N4-hydroxy-2-isobutylsuccinamide]
- inhibition at 100 µM (recombinant human ACE): 0%
- inhibition at 100 µM [1]: 0%
- IC50 (aureolysin): 2400 nM
- Relative activity (aureolysin; Compound 12 25 μM): 37%
- Relative activity (aureolysin; Compound 12 317 μM): 8%
- Inhibition (%) Cysteine protease [2, 6]: 27%
- Inhibition (%) Cysteine protease [2, 7]: 53%
- Inhibition (%) Cysteine protease [2, 8]: 78%
- Inhibition (%) Cysteine protease [2, 9]: 87%
- Inhibition (%) V8 protease [3, 6]: 83%
- Inhibition (%) V8 protease [3, 7]: 91%
- Inhibition (%) V8 protease [3, 8]: 97%
- Inhibition (%) V8 protease [3, 9]: 99%
- inhibition at 100 µM [4]: 0%
- Inhibition (%) Aureolysin [5, 6]: 89%
- Inhibition (%) Aureolysin [5, 7]: 94%
- Inhibition (%) Aureolysin [5, 8]: 98%
- Inhibition (%) Aureolysin [5, 9]: 99%
